Entries after “also recorded” stand apart in the source; their conditions may differ. Structures can show the parent of a compound that is named as a salt.
System: human liver microsomes (HLM) (Homo sapiens)
Test: Kinetics inhibitory assay of quercetin on ziprasidone metabolism in HLM
Format: in vitro ADME
Settings: ziprasidone 2.5–20 μM, quercetin 0, 6.25, 12.5, 25 μM

human liver microsomes (HLM) (Homo sapiens), sequence (P08684 2-503): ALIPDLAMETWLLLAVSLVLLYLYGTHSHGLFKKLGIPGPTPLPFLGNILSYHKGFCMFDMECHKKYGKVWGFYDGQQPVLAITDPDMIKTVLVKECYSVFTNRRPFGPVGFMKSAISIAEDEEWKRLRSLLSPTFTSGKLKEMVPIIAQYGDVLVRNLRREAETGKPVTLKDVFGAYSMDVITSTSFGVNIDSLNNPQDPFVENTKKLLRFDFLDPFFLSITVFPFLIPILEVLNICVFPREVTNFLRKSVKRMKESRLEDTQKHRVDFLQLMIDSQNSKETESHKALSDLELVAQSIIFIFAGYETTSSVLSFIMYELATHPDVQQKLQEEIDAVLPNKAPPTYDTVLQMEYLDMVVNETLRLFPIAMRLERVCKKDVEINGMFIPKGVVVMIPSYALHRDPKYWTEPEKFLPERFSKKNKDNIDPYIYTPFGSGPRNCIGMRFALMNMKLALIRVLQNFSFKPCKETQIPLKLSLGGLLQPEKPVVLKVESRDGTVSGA

Compound	Inhibition type
O=c1c(O)c(-c2ccc(O)c(O)c2)oc2cc(O)cc(O)c12 [quercetin, Quercetin]	mixed inhibitory mechanism; also recorded: mixed inhibition

Molecular target: human liver microsomes (HLM) (Homo sapiens, UniProt P08684)
Sequence (P08684 2-503): as above
Test: as above
Format: in vitro ADME
Settings: not given

Compound	α
O=c1c(O)c(-c2ccc(O)c(O)c2)oc2cc(O)cc(O)c12 [quercetin, Quercetin]	0.21

Same assay, conditions: Lineweaver-Burk secondary plot

Compound	αKi
O=c1c(O)c(-c2ccc(O)c(O)c2)oc2cc(O)cc(O)c12 [quercetin, Quercetin]	4.66 µM

System: rat liver microsomes (RLM)
Test: Kinetics inhibitory assay of quercetin on ziprasidone metabolism in RLM
Format: in vitro ADME
Settings: RLM

Compound	α
O=c1c(O)c(-c2ccc(O)c(O)c2)oc2cc(O)cc(O)c12 [quercetin, Quercetin]	0.96

Same assay, conditions: RLM 0.3 mg/mL, ziprasidone 10 μM, quercetin 0–100 μM, n=3

Compound	IC50
O=c1c(O)c(-c2ccc(O)c(O)c2)oc2cc(O)cc(O)c12 [quercetin, Quercetin]	13.8 ± 0.3 µM

Same assay, conditions: RLM, Lineweaver-Burk secondary plot

Compound	Ki	αKi
O=c1c(O)c(-c2ccc(O)c(O)c2)oc2cc(O)cc(O)c12 [quercetin, Quercetin]	30.7 µM	29.4 µM

Same assay, conditions: RLM, ziprasidone 2.5–20 μM, quercetin 0, 6.5, 13, 26 μM

Compound	Inhibition type
O=c1c(O)c(-c2ccc(O)c(O)c2)oc2cc(O)cc(O)c12 [quercetin, Quercetin]	mixed inhibitory mechanism; also recorded: mixed inhibition

System: not given
Test: not given
Set-up: method as in Ye et al., 2024
Settings: nimodipine coadministration; ref Ye et al., 2024; cited from earlier work

Compound	elevation of AUC	elevation of Cmax
CCN1CCN(c2cc(-c3ccc(F)cc3)c3c(n2)CCCCCC3)CC1 [blonanserin]	more than 2 fold	more than 2 fold

System: rat liver microsomes (RLM)
Test: Inhibitor screening on ziprasidone metabolism in RLM
Format: in vitro ADME
Settings: 100 μM inhibitor, 0.3 mg/mL RLM, ziprasidone 10 μM, 20 min

Compound	Relative activity (%)
CCOC(=O)C1=C(COCCN)NC(C)=C(C(=O)OC)C1c1ccccc1Cl (stereo not drawn) [Amlodipine]	24.44 ± 2.51%
O=c1cc(-c2ccc(O)cc2)oc2cc(O)cc(O)c12 [Apigenin]	31.41 ± 2.56%
CC(C)(O)[C@H]1CC[C@@](C)([C@H]2[C@@H](O)C[C@@]3(C)[C@@H]4C[C@H](O[C@@H]5O[C@H](CO)[C@@H](O)[C@H](O)[C@H]5O)[C@H]5C(C)(C)[C@@H](O[C@@H]6OC[C@@H](O)[C@H](O)[C@H]6O)CC[C@@]56C[C@@]46CC[C@]23C)O1 [Astragaloside A]	107.37 ± 18.93%
CCOc1nc2cccc(C(=O)O)c2n1Cc1ccc(-c2ccccc2-c2nc(=O)o[nH]2)cc1 [Azilsartan]	92.59 ± 5.86%
O=c1cc(-c2ccccc2)oc2cc(O)c(O)c(O)c12 [Baicalein]	97.20 ± 18.86%
O=C(O)[C@H]1O[C@@H](Oc2cc3oc(-c4ccccc4)cc(=O)c3c(O)c2O)[C@H](O)[C@@H](O)[C@@H]1O [Baicalin]	87.83 ± 13.63%
CCCCN1CCCCC1C(=O)Nc1c(C)cccc1C (stereo not drawn) [Bupivacaine hydrochloride]	104.14 ± 92.28%
COc1ccc(-c2coc3cc(O)ccc3c2=O)cc1O [Calycosin]	104.22 ± 12.51%
CCOc1nc2cccc(C(=O)O)c2n1Cc1ccc(-c2ccccc2-c2nnn[nH]2)cc1 [Candesartan]	54.29 ± 3.95%
COc1ccccc1OCCNCC(O)COc1cccc2[nH]c3ccccc3c12 (stereo not drawn) [Carvedilol]	29.89 ± 3.28%
O=C(/C=C/c1ccc(O)c(O)c1)O[C@@H]1C[C@](O)(C(=O)O)C[C@@H](O)[C@H]1O [Chlorogenic acid]	91.52 ± 17.97%
O=c1cc(-c2ccccc2)oc2cc(O)cc(O)c12 [Chrysin]	36.09 ± 19.09%
O=C1CCc2cc(OCCCCc3nnnn3C3CCCCC3)ccc2N1 [Cilostazol]	55.05 ± 0.99%
Clc1cccc(Cl)c1N=C1NCCN1 [Clonidine hydrochloride]	74.70 ± 0.47%
COC(=O)[C@H](c1ccccc1Cl)N1CCc2sccc2C1 [Clopidogrel hydrogen sulfate]	179.48 ± 15.80%
C[C@@H]1C(=O)O[C@H](C)[C@H]1C[C@@H](O)[C@](C)(O)[C@H]1CC[C@@]2(O)C3=CC(=O)[C@@H]4C[C@@H](O)[C@@H](O)C[C@]4(C)[C@H]3CC[C@]12C [Cyasterone]	83.75 ± 6.16%
O=c1c(-c2ccc(O)cc2)coc2cc(O)ccc12 [Daidzein]	121.70 ± 5.16%
CCCCc1oc2ccc(NS(C)(=O)=O)cc2c1C(=O)c1ccc(OCCCN(CCCC)CCCC)cc1 [Dronedarone Hydrochloride]	23.67 ± 11.05%
Cc1cc(O)c2c(c1)C(=O)c1cc(O)cc(O)c1C2=O [Emodin]	25.64 ± 3.15%
CC(C)(O)CNc1nc(Nc2ccnc(C(F)(F)F)c2)nc(-c2cccc(C(F)(F)F)n2)n1 [Enasidenib]	40.44 ± 1.29%
CCOC(=O)C1=C(C)NC(C)=C(C(=O)OC)C1c1cccc(Cl)c1Cl (stereo not drawn) [Felodipine]	28.36 ± 1.67%
COc1cc2ncnc(Nc3ccc(F)c(Cl)c3)c2cc1OCCCN1CCOCC1 [Gefitinib]	36.20 ± 0.61%
CCCCC1=NC2(CCCC2)C(=O)N1Cc1ccc(-c2ccccc2-c2nnn[nH]2)cc1 [Irbesartan]	72.41 ± 4.72%

Compound	Relative activity (%)
CCN(CC)CC(=O)Nc1c(C)cccc1C [Lidocaine]	93.56 ± 10.94%
CCCCc1nc(Cl)c(CO)n1Cc1ccc(-c2ccccc2-c2nn[nH]n2)cc1 [Losartan potassium]	35.58 ± 50.31%
CCCCc1nc(Cl)c(CO)n1Cc1ccc(-c2ccccc2-c2nn[nH]n2)cc1 [Losartan]	74.09 ± 5.29%
O=C1CCC[C@@H]2[C@H]3CCCN4CCC[C@@H](CN12)[C@@H]34 [Matrine]	98.65 ± 1.77%
O=c1c(O)c(-c2cc(O)c(O)c(O)c2)oc2cc(O)cc(O)c12 [Myricetin]	2.64 ± 1.71%
OC(CNCC(O)C1CCc2cc(F)ccc2O1)C1CCc2cc(F)ccc2O1 (stereo not drawn) [Nebivolol Hydrochloride]	63.48 ± 3.34%
COCCOC(=O)C1=C(C)NC(C)=C(C(=O)OC(C)C)C1c1cccc([N+](=O)[O-])c1 (stereo not drawn) [Nimodipine]	49.68 ± 0.53%
COc1ccc(C(C)=O)c(O)c1 [Paeonol]	108.77 ± 3.51%
CCN(CC)CCNC(=O)c1ccc(N)cc1 [Procainamide hydrochloride]	113.37 ± 13.44%
C=C[C@H]1C[N@@]2CC[C@H]1C[C@@H]2[C@@H](O)c1ccnc2ccc(OC)cc12 [Quinidine]	83.40 ± 4.78%
O=C(NC[C@H]1CN(c2ccc(N3CCOCC3=O)cc2)C(=O)O1)c1ccc(Cl)s1 [Rivaroxaban]	102.37 ± 4.89%
CCCN1CCCC[C@H]1C(=O)Nc1c(C)cccc1C [Ropivacaine hydrochloride]	102.42 ± 0.84%
C=C1C[C@@]23CC[C@H]4[C@@](C)(CCC[C@@]4(C)C(=O)O[C@@H]4O[C@H](CO)[C@@H](O)[C@H](O)[C@H]4O)[C@@H]2CC[C@]1(O[C@@H]1O[C@H](CO)[C@@H](O)[C@H](O)[C@H]1O)C3 [Rubusoside]	103.75 ± 2.05%
COc1cc2c(c(OC)c1OC)-c1c(cc(OC)c(OC)c1OC)C[C@H](C)[C@H](C)C2 [Schisandrin A]	69.51 ± 11.79%
COc1cc(C2Oc3cc([C@H]4Oc5cc(O)cc(O)c5C(=O)[C@@H]4O)ccc3OC2CO)ccc1O (stereo partly drawn) [Silibinin]	45.13 ± 1.52%
CCCc1nc2c(C)cc(-c3nc4ccccc4n3C)cc2n1Cc1ccc(-c2ccccc2C(=O)O)cc1 [Telmisartan]	64.19 ± 12.39%
CCCSc1nc(N[C@@H]2C[C@H]2c2ccc(F)c(F)c2)c2nnn([C@@H]3C[C@H](OCCO)[C@@H](O)[C@H]3O)c2n1 [Ticagrelor]	36.84 ± 20.49%
CC(C)[C@]12O[C@H]1[C@@H]1O[C@]13[C@]1(O[C@H]1C[C@H]1C4=C(CC[C@@]13C)C(=O)OC4)[C@@H]2O [Triptolide]	87.47 ± 5.70%
CCCCC(=O)N(Cc1ccc(-c2ccccc2-c2nnn[nH]2)cc1)[C@H](C(=O)O)C(C)C [Valsartan]	44.50 ± 62.94%
COc1cc(CCC(C)=O)ccc1O [Vanillylacetone]	93.56 ± 3.00%
COc1c(O)cc(O)c2c(=O)cc(-c3ccccc3)oc12 [Wogonin]	80.85 ± 12.40%
COc1c(O[C@@H]2O[C@H](C(=O)O)[C@@H](O)[C@H](O)[C@H]2O)cc(O)c2c(=O)cc(-c3ccccc3)oc12 [Wogonoside]	92.55 ± 1.09%
Cucurbitacin B	117.16 ± 18.74%

Same assay, conditions: 100 μM inhibitor, RLM

Compound	suppression of the metabolism of ziprasidone
O=c1c(O)c(-c2ccc(O)c(O)c2)oc2cc(O)cc(O)c12 [quercetin, Quercetin]	over 80%
Oc1ccc(/C=C/c2cc(O)cc(O)c2)cc1 [resveratrol, Resveratrol]	over 80%

Molecular target: CYP3A4.1 (Homo sapiens, UniProt P08684)
Sequence (P08684 whole entry): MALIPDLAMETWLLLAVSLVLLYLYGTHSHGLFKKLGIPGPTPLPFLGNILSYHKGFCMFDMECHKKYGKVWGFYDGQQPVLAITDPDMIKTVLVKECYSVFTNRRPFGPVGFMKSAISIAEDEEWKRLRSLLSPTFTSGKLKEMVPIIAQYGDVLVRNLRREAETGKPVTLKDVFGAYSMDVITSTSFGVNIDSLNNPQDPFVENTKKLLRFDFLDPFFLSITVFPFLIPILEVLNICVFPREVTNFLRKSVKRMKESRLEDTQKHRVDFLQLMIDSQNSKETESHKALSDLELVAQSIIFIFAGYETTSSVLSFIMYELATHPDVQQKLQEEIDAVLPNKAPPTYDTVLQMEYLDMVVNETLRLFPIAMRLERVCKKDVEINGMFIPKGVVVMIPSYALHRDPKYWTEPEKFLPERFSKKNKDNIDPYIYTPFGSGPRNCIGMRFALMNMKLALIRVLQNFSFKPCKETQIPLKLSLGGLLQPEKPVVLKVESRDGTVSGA
Test: not given
Settings: not given

Compound	α	αKi
O=c1c(O)c(-c2ccc(O)c(O)c2)oc2cc(O)cc(O)c12 [quercetin, Quercetin]	0.66	10.06 µM

Source: PMC12069442 (Frontiers in Pharmacology, 2025)
